Assay results from patent publication US7521478B2, “Total synthesis of myriaporones” (Pharma Mar, S.A.U., priority 2002, dated 2009).

Tests used:
Assay type in all cases: cell-based
SK-BR-3 = assay: Inhibition of cell growth by colorimetric SRB assay, SK-BR-3; details: SK-BR-3, 48 hours exposure; for GI50 / CC50: Homo sapiens; for CC50: cell killing, read-out: LC50 (the source's name); for TGI: total growth inhibition
Procedure, shortened: (§1)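 Absorbance of solubilized bound SRB (490 nm) quantified cell growth and viability after cells were exposed to compound for 48 h. Seeding was 5×10^3 cells per well in RPMI 1640/10% FBS, with 18 h attachment beforehand. GI, TGI and LC were calculated from means of triplicate wells.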

LoVo = assay: Inhibition of cell growth by colorimetric SRB assay, LOVO; details: Homo sapiens, LOVO, 48 hours exposure; for LC50: cell killing, read-out: LC50; for IC (total growth inhibition): read-out: TGI
Procedure, shortened: as §1

A-549 = assay: Inhibition of cell growth by colorimetric SRB assay, A-549; details: Homo sapiens, A549, A-549, 48 hours exposure; for CC50: cell killing, read-out: LC50 (the source's name); for IC (total growth inhibition): read-out: TGI
Procedure, shortened: as §1

PANC-1 = assay: Inhibition of cell growth by colorimetric SRB assay, PANC-1; details: Homo sapiens, PANC-1, 48 hours exposure; for CC50: cell killing, read-out: LC50 (the source's name); for IC (total growth inhibition): read-out: TGI
Procedure, shortened: as §1

IGROV = assay: Inhibition of cell growth by colorimetric SRB assay, IGROV; details: Homo sapiens, 48 hours exposure; for CC50: cell killing, read-out: LC50 (the source's name); for IC (total growth inhibition): read-out: TGI
Procedure, shortened: as §1

LNCaP = assay: Inhibition of cell growth by colorimetric SRB assay, LN-caP; details: Homo sapiens, LN-caP, 48 hours exposure; for CC50: cell killing, read-out: LC50 (the source's name); for IC (total growth inhibition): read-out: TGI
Procedure, shortened: as §1

HeLa-APL = assay: Inhibition of cell growth by colorimetric SRB assay, HELA-APL; details: Homo sapiens, HELA-APL, 48 hours exposure; for CC50: cell killing, read-out: LC50 (the source's name)
Procedure, shortened: as §1

K-562 = assay: Inhibition of cell growth by colorimetric SRB assay, K-562; details: Homo sapiens, K562, K-562, 48 hours exposure; for CC50: cell killing, read-out: LC50 (the source's name); for IC (total growth inhibition): read-out: TGI
Procedure, shortened: as §1

IGROV-ET = assay: Inhibition of cell growth by colorimetric SRB assay, IGROV-ET; details: Homo sapiens, IGROV-ET, 48 hours exposure; for CC50: cell killing, read-out: LC50 (the source's name); for IC (total growth inhibition): read-out: TGI
Procedure, shortened: as §1

DU-145 = assay: Inhibition of cell growth by colorimetric SRB assay, DU-145; details: Homo sapiens, DU-145, 48 hours exposure; for CC50: cell killing, read-out: LC50 (the source's name); for IC (total growth inhibition): read-out: TGI
Procedure, shortened: as §1

SK-MEL-28 = assay: Inhibition of cell growth by colorimetric SRB assay, MEL-28; details: Homo sapiens, SK-MEL-28, MEL-28, 48 hours exposure; for CC50: cell killing, read-out: LC50 (the source's name); for IC (total growth inhibition): read-out: TGI
Procedure, shortened: as §1

HT-29 = assay: Inhibition of cell growth by colorimetric SRB assay, HT-29; details: Homo sapiens, HT-29, 48 hours exposure; for CC50: cell killing, read-out: LC50 (the source's name); for IC (total growth inhibition): read-out: TGI
Procedure, shortened: as §1

HeLa = assay: Inhibition of cell growth by colorimetric SRB assay, HELA; details: Homo sapiens, HELA, 48 hours exposure; for CC50: cell killing, read-out: LC50 (the source's name); for IC (total growth inhibition): read-out: TGI
Procedure, shortened: as §1

LoVo-Dox = assay: Inhibition of cell growth by colorimetric SRB assay, LOVO-DOX; details: Homo sapiens, LOVO-DOX, 48 hours exposure; for LC50 (concentration for 50% cell killing): read-out: LC50; for IC (total growth inhibition): read-out: TGI
Procedure, shortened: as §1

C/C=C\[C@H](C)[C@H]1OC1(C)[C@@H](O[Si](C)(C)C(C)(C)C)[C@@H](CO[Si](C)(C)C(C)(C)C)C(=O)[C@H](CO[Si](C)(C)C(C)(C)C)[C@H](CC(=O)CC)O[Si](C)(C)C(C)(C)C (some centres unmarked) [Compound 19a]
GI50 (SK-BR-3): 12.1 µM
CC50 (SK-BR-3): 12.1 µM
TGI (SK-BR-3): 1.21E−05 Molar
GI50 (LoVo): 12.1 µM
LC50 (LoVo): 12.1 µM
IC (total growth inhibition) (LoVo): 12.1 µM
GI50 (A-549): 12.1 µM
CC50 (A-549): 12.1 µM
IC (total growth inhibition) (A-549): 12.1 µM
GI50 (PANC-1): 12.1 µM
CC50 (PANC-1): 12.1 µM
IC (total growth inhibition) (PANC-1): 12.1 µM
GI50 (IGROV): 12.1 µM
CC50 (IGROV): 12.1 µM
IC (total growth inhibition) (IGROV): 12.1 µM
GI50 (LNCaP): 12.1 µM
CC50 (LNCaP): 12.1 µM
IC (total growth inhibition) (LNCaP): 12.1 µM
CC50 (HeLa-APL): 12.1 µM
GI50 (K-562): 12.1 µM
CC50 (K-562): 12.1 µM
IC (total growth inhibition) (K-562): 12.1 µM
GI50 (IGROV-ET): 12.1 µM
CC50 (IGROV-ET): 12.1 µM
IC (total growth inhibition) (IGROV-ET): 12.1 µM
GI50 (DU-145): 12.1 µM
CC50 (DU-145): 12.1 µM
IC (total growth inhibition) (DU-145): 12.1 µM
GI50 (SK-MEL-28): 12.1 µM
CC50 (SK-MEL-28): 12.1 µM
IC (total growth inhibition) (SK-MEL-28): 12.1 µM
GI50 (HT-29): 12.1 µM
CC50 (HT-29): 12.1 µM
IC (total growth inhibition) (HT-29): 12.1 µM
GI50 (HeLa): 12.1 µM
CC50 (HeLa): 12.1 µM
IC (total growth inhibition) (HeLa): 12.1 µM
GI50 (LoVo-Dox): 12.1 µM
LC50 (concentration for 50% cell killing) (LoVo-Dox): 12.1 µM
IC (total growth inhibition) (LoVo-Dox): 12.1 µM

C/C=C\[C@H](C)[C@H]1OC1(C)[C@@H](O[Si](C)(C)C(C)(C)C)[C@@H](CO[Si](C)(C)C(C)(C)C)C(=O)[C@H](CO[Si](C)(C)C(C)(C)C)[C@@H](CC(=O)CC)O[Si](C)(C)C(C)(C)C (some centres unmarked) [Compound 19b]
GI50 (SK-BR-3): 6.15 µM
CC50 (SK-BR-3): 12 µM
TGI (SK-BR-3): 1.17E−05 Molar
GI50 (LoVo): 12 µM
LC50 (LoVo): 12 µM
IC (total growth inhibition) (LoVo): 12 µM
GI50 (A-549): 12 µM
CC50 (A-549): 12 µM
IC (total growth inhibition) (A-549): 12 µM
GI50 (PANC-1): 12 µM
CC50 (PANC-1): 12 µM
IC (total growth inhibition) (PANC-1): 12 µM
GI50 (IGROV): 12 µM
CC50 (IGROV): 12 µM
IC (total growth inhibition) (IGROV): 12 µM
GI50 (LNCaP): 12 µM
CC50 (LNCaP): 12 µM
IC (total growth inhibition) (LNCaP): 12 µM
CC50 (HeLa-APL): 12 µM
GI50 (K-562): 12 µM
CC50 (K-562): 12 µM
IC (total growth inhibition) (K-562): 12 µM
GI50 (IGROV-ET): 12 µM
CC50 (IGROV-ET): 12 µM
IC (total growth inhibition) (IGROV-ET): 12 µM
GI50 (DU-145): 12 µM
CC50 (DU-145): 12 µM
IC (total growth inhibition) (DU-145): 12 µM
GI50 (SK-MEL-28): 12 µM
CC50 (SK-MEL-28): 12 µM
IC (total growth inhibition) (SK-MEL-28): 12 µM
GI50 (HT-29): 12 µM
CC50 (HT-29): 12 µM
IC (total growth inhibition) (HT-29): 12 µM
GI50 (HeLa): 12 µM
CC50 (HeLa): 12 µM
IC (total growth inhibition) (HeLa): 12 µM
GI50 (LoVo-Dox): 12 µM
LC50 (concentration for 50% cell killing) (LoVo-Dox): 12 µM
IC (total growth inhibition) (LoVo-Dox): 12 µM

C/C=C\[C@H](C)[C@H]1O[C@@]1(C)[C@@H](O)[C@@H](COC(C)=O)C(=O)[C@H](CO)[C@@H](O)CC(=O)CC [Compound 47]
GI50 (SK-BR-3): 0.0231 µM
CC50 (SK-BR-3): 2.3 µM
TGI (SK-BR-3): 1.18E−07 Molar
GI50 (LoVo): 0.0403 µM
LC50 (LoVo): 17.7 µM
IC (total growth inhibition) (LoVo): 0.374 µM
GI50 (A-549): 0.151 µM
CC50 (A-549): 23.2 µM
IC (total growth inhibition) (A-549): 1.12 µM
GI50 (PANC-1): 0.0905 µM
CC50 (PANC-1): 19.5 µM
IC (total growth inhibition) (PANC-1): 2.38 µM
GI50 (IGROV): 0.0639 µM
CC50 (IGROV): 24.1 µM
IC (total growth inhibition) (IGROV): 0.528 µM
GI50 (LNCaP): 0.0813 µM
CC50 (LNCaP): 8.88 µM
IC (total growth inhibition) (LNCaP): 0.536 µM
CC50 (HeLa-APL): 24.1 µM
GI50 (HeLa-APL; read-out: GI50): 0.0796 µM
IC (total growth inhibition) (HeLa-APL; total growth inhibition, read-out: TGI): 0.591 µM
GI50 (K-562): 0.294 µM
CC50 (K-562): 11.8 µM
IC (total growth inhibition) (K-562): 0.999 µM
GI50 (IGROV-ET): 0.152 µM
CC50 (IGROV-ET): 24.1 µM
IC (total growth inhibition) (IGROV-ET): 1.08 µM
GI50 (DU-145): 0.0815 µM
CC50 (DU-145): 24.1 µM
IC (total growth inhibition) (DU-145): 0.531 µM
GI50 (SK-MEL-28): 0.082 µM
CC50 (SK-MEL-28): 12.9 µM
IC (total growth inhibition) (SK-MEL-28): 0.984 µM
GI50 (HT-29): 0.106 µM
CC50 (HT-29): 24.1 µM
IC (total growth inhibition) (HT-29): 3.11 µM
GI50 (HeLa): 0.0717 µM
CC50 (HeLa): 13.5 µM
IC (total growth inhibition) (HeLa): 0.434 µM
GI50 (LoVo-Dox): 0.216 µM
LC50 (concentration for 50% cell killing) (LoVo-Dox): 24.1 µM
IC (total growth inhibition) (LoVo-Dox): 24.1 µM
